System: E. coli ATCC 25922
Assay: Antibacterial MIC assay, E. coli ATCC 25922
Assay type: cell-based, Escherichia coli
Conditions: 18 h, visual inspection
Description: The antibacterial effect of the complex was tested against the Gram-negative strain Escherichia coli (E. coli) ATCC 25922, the Gram-positive reference strain Staphylococcus aureus (S. aureus) ATCC 25923, and the methicillin-resistant S. aureus MRSA ATCC 43300 strain. MRSA strains are responsible for several difficult-to-treat hospital-acquired infections.
The following bacterial strains were used in our experiments: Gram-positive S. aureus American Type Culture Collection (ATCC) 25923 as the methicillin-susceptible reference bacterial strain; methicillin-resistant S. aureus ATCC 43300 (MRSA) strain; E. coli ATCC 25922 as a Gram-negative bacterial strain.
MIC values of the complexes were determined in 96-well plates based on the Clinical and Laboratory Standard Institute guidelines (CLSI guidelines). The stock solutions of the compound (dissolved in DMSO at 5 mM concentration) were diluted in 100 μL of Mueller Hinton Broth. Then, 10^–4 dilution of an overnight bacterial culture in 100 μL of medium was added to each well, with the exception of the medium control wells.

N#Cc1ccccc1.[C-]#[O+].[C-]#[O+].[C-]#[O+].[O-]n1ccccc1=S.[Re+] [complex 4, fac-[Re(CO)3(pth)(benzonitrile)]]
MIC E. coli ATCC 25922: 50 µM

— paper PMC12391994, “Synthesis of a fac-Tricarbonylrhenium(I) Complex with Pyrithione, Its Physicochemical Characterization, and Assessment of Biological Effects” (ACS Omega, 2025)
